Test: Solubility of the dye in methyl ethyl ketone (MEK)
Assay type: physicochemical
Details: dye dissolved in methyl ethyl ketone; wt % at 25° C.
Description: An anionic dye of the present invention dissolving in an amount of not less than 1% indicates an anionic dye dissolving in methyl ethyl ketone not less than 1 wt % at 25° C. More preferably, an anionic dye dissolving in methyl ethyl ketone in an amount of not less than 1.5 wt %. And still more preferably, it is not less than 2 wt %, and specifically preferably, it is not less than 2.5 wt %.

CCCCN1C(=O)C(=C2C=C(C)c3ccc(N(CC)CC)cc3O2)C(=O)N(CCCC)C1=S [Dye1 (nonion)]
MEK Solubility (%): 2%

Cn1c(-c2ccccc2)c(/C=C/C2=[N+](C)c3cc(Cl)ccc3C2(C)C)c2ccccc21 [Dye2 (cation)]
MEK Solubility (%): 1%
